Data published in PubChem BioAssay (NCI).
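Where inhibition never reached the appropriate level, the endpoint shown equals the highest concentration tested. Otherwise, values were interpolated linearly from a five-concentration, 48-hour dose response in 96-well plates. Definition used: TGI = concentration required for complete inhibition of growth.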

What was measured:
Experiment in all cases: growth of human tumour cells (NCI), 48 h
RXF 393 renal = test system: RXF 393 renal
DMS 114 small cell lung = test system: DMS 114 small cell lung
SW-620 colon = test system: SW-620 colon
KM20L2 colon = test system: KM20L2 colon
CCRF-CEM leukemia = test system: CCRF-CEM leukemia
SF-539 CNS = test system: SF-539 CNS
SR leukemia = test system: SR leukemia
EKVX NSCLC = test system: EKVX NSCLC
SF-295 CNS = test system: SF-295 CNS
RXF-631 renal = test system: RXF-631 renal
IGROV1 ovarian = test system: IGROV1 ovarian
HCT-15 colon = test system: HCT-15 colon
HL-60(TB) leukemia = test system: HL-60(TB) leukemia
NCI-H460 lung = test system: NCI-H460 lung
SNB-78 CNS = test system: SNB-78 CNS
SK-OV-3 ovarian = test system: SK-OV-3 ovarian
XF 498 CNS = test system: XF 498 CNS
A549 NSCLC = test system: A549 NSCLC
786-0 renal = test system: 786-0 renal
TK-10 renal = test system: TK-10 renal
DLD-1 colon = test system: DLD-1 colon
HCT-116 colon = test system: HCT-116 colon
M19-MEL melanoma = test system: M19-MEL melanoma
OVCAR-3 ovarian = test system: OVCAR-3 ovarian
OVCAR-5 ovarian = test system: OVCAR-5 ovarian
OVCAR-4 ovarian = test system: OVCAR-4 ovarian
SK-MEL-5 melanoma = test system: SK-MEL-5 melanoma
SN12C renal = test system: SN12C renal
NCI-H23 lung = test system: NCI-H23 lung
HT29 colon = test system: HT29 colon
HOP-92 NSCLC = test system: HOP-92 NSCLC
UACC-257 melanoma = test system: UACC-257 melanoma
A498 renal = test system: A498 renal
M14 melanoma = test system: M14 melanoma
KM12 colon = test system: KM12 colon
OVCAR-8 ovarian = test system: OVCAR-8 ovarian
HOP-62 NSCLC = test system: HOP-62 NSCLC
SK-MEL-28 melanoma = test system: SK-MEL-28 melanoma
UACC-62 melanoma = test system: UACC-62 melanoma
COLO 205 colon = test system: COLO 205 colon
MALME-3M melanoma = test system: MALME-3M melanoma
SNB-19 CNS = test system: SNB-19 CNS
LXFL 529 NSCLC = test system: LXFL 529 NSCLC
HCC-2998 colon = test system: HCC-2998 colon
NCI-H226 lung = test system: NCI-H226 lung
U251 CNS = test system: U251 CNS
UO-31 renal = test system: UO-31 renal
K-562 leukemia = test system: K-562 leukemia
SNB-75 CNS = test system: SNB-75 CNS
NCI-H522 lung = test system: NCI-H522 lung
HOP-18 NSCLC = test system: HOP-18 NSCLC
LOX IMVI melanoma = test system: LOX IMVI melanoma
SF-268 CNS = test system: SF-268 CNS
CAKI-1 renal = test system: CAKI-1 renal
ACHN renal = test system: ACHN renal
RPMI-8226 leukemia = test system: RPMI-8226 leukemia
SK-MEL-2 melanoma = test system: SK-MEL-2 melanoma
MOLT-4 leukemia = test system: MOLT-4 leukemia

Measured: TGI

CCOC(=O)C(/C(=N/NC(=O)OC)C(=O)Nc1ccc(C(C)=O)cc1)c1cnc2ccccc2n1 (stereo not given)
not listed: RPMI-8226 leukemia | SK-MEL-2 melanoma | MOLT-4 leukemia
> 100 µM: all other assays above

COC(=O)C(=O)C(CC(=O)Nc1c(C)cccc1C)C(=O)OC (stereo not given)
not listed: A498 renal | COLO 205 colon | SNB-75 CNS
> 100 µM: all other assays above
